Drawing on patent publication US7468375B2 (Pfizer Inc., priority 2004, dated 2008), this text covers IC50 and EC50 for 18 compounds.

The target in assay [1] is T1, Full-length wild type HIV-1 integrase (SF1) (Human immunodeficiency virus type 1 group M subtype B, UniProt P04585).
T1 construct: made in house; host or cells: E. coli BL21 (DE3)
As to the kind of experiment: Integrase strand-transfer scintillation proximity assay. It is filed as biochemical. The settings on record: 50 min at 37° C., 246 nM integrase, 50 nM host DNA. An excerpt: Integrase Strand-Transfer Scintillation Proximity Assay Oligonucleotides
Oligonucleotide #1-5′-(biotin)[…]-3′ (SEQ ID NO: 1) and oligonucleotide #2-5′-[…]-3′ (SEQ ID NO: 2), were synthesized by TriLink BioTechnologies, Inc. (San Diego, Calif.). The annealed product represents preprocessed viral ds-DNA derived from the LTR U5 sequence of the viral genome. A ds-DNA control to test for non-specific interactions was made using a 3′ di-deoxy derivative of oligonucleotide #1 annealed to oligonucleotide #2. The CA overhang at the 5′ end of the non-biotinylated strand of the ds-DNA was created artificially by using a complimentary DNA oligonucleotide shortened by 2 base pairs. This configuration eliminates the requisite 3′ processing step of the integrase enzyme prior to the strand-transfer mechanism. Host ds-DNA was prepared as an unlabeled and [^3H]-thymidine labeled product from annealed oligonucleotide #3-5-[…]-3′ (SEQ ID NO: 3), and oligonucleotide #4-5′-[…]-3′ (SEQ ID NO: 4), both synthesized by TriLink BioTechnologies, Inc. (San Diego, Calif.). The annealed product had overhanging 3′ ends of poly(dA). Host DNA was custom radiolabeled by PerkinElmer Life Sciences Inc. (Boston, Mass.) using an enzymatic method with a 12/1 ratio of [methyl-3H]dTTP/cold ds-DNA to yield 5′-blunt end ds-DNA with a specific activity of >900 Ci/mmol. The radiolabeled product was purified using a NENSORB cartridge and stored in stabilized aqueous solution (PerkinElmer). The final radiolabeled product had six [^3H]-thymidine nucleotides at both 5′ ends of the host ds-DNA. Reagents: Streptavidin-coated polyvinyltoluene (PVT) SPA beads were purchased from Amersham Biosciences (Piscataway, N.J.). Cesium chloride was purchased from Shelton Scientific, Inc. (Shelton, Conn.). White, polystyrene, flat-bottom, non-binding surface, 96-well plates were purchased from Corning. All other buffer components were purchased from Sigma (St. Louis, Mo.) unless otherwise indicated.
Enzyme Construction: Full-length wild type HIV-1 integrase (SF1) sequence (amino acids 1-288) was constructed in a pET24a vector (Novagen, Madison, Wis.). The construct was confirmed through DNA sequencing. Enzyme Purification: Full length wild-type HIV Integrase was expressed in E. coli BL21 (DE3) cells and induced with 1 mM isopropyl-1 thio-β-D-galactopyranoside (IPTG) when cells reached an optical density between 0.8-1.0 at 600 nm. Cells were lysed by microfluidation in 50 mM HEPES pH 7.0, 75 mM NaCl, 5 mM DTT, 1 mM 4-(2-Aminoethyl)benzenesulfonylfluoride HCl (AEBSF). Lysate was then centrifuged 20 minutes at 11 k rpm in GSA rotor in Sorvall RC-5B at 4° C. Supernant was discarded and pellet resuspended in 50 mM HEPES pH 7.0, 750 mM NaCl, 5 mM DTT, 1 mM AEBSF and homogenized in a 40 mL Dounce homogenizer for 20 minutes on ice. Homogenate was then centrifuged 20 minutes at 11 k rpm in SS34 rotor in Sorvall RC-5B at 4° C. Supernant was discarded and pellet resuspended in 50 mM HEPES pH 7.0, 750 mM NaCl, 25 mM CHAPS, 5 mM DTT, 1 mM AEBSF. Preparation was then centrifuged 20 minutes at 11 k rpm in SS34 rotor in Sorvall RC-5B at 4° C. Supernant was then diluted 1:1 with 50 mM HEPES pH 7.0, 25 mM CHAPS, 1 mM DTT, 1 mM AEBSF and loaded onto a Q-Sepharose column pre-equilibrated with 50 mM HEPES, pH 7.0, 375 mM NaCl, 25 mM CHAPS, 1 mM DTT, 1 mM AEBSF. The flow through peak was collected and NaCl diluted to 0.1 M with 50 mM HEPES pH 7.0, 25 mM CHAPS, 1 mM DTT, 0.5 mM AEBSF and loaded onto a SP-Sepharose column pre-equilibrated with 50 mM HEPES pH 7.0, 100 mM NaCl, 25 mM CHAPS, 1 mM DTT, 0.5 mM AEBSF. After washing the column with the equilibration buffer, a 100 to 400 mM NaCl gradient was run. The eluted integrase was concentrated and run on a S-300 gel diffusion column using 50 mM HEPES pH 7.0, 500 mM NaCl, 25 mM CHAPS, 1 mM DTT, 0.5 mM AEBSF. The peak from this column was concentrated to 0.76 mg/mL and stored at −70° C. and later used for strand transfer assays. […]
(In general: SPA uses beads or plates that emit light when radiolabelled molecules are held near them.)

Assay [2] has as its system RF strain of HIV-1 in CEM-SS cells. The experiment in a line: HIV-1 cell protection assay (XTT dye reduction). It is filed as cell-based. The method, then:
HIV-1 Cell Protection Assay
The antiviral activities of potential modulator compounds (test compounds) were determined in HIV-1 cell protection assays using the RF strain of HIV-1, CEM-SS cells, and the XTT dye reduction method (Weislow, O. S. et al., J. Natl. Cancer Inst. 81: 577-586 (1989)). Subject cells were infected with HIV-1 RF virus at an moi of 0.025 to 0.819 or mock infected with medium only and added at 2×10^4 cells per well into 96 well plates containing half-log dilutions of test compounds. Six days later, 50 μl of XTT solution (1 mg/ml XTT tetrazolium and […] phenazine methosulfate) were added to the wells and the plates were reincubated for four hours. Viability, as determined by the amount of XTT formazan produced, was quantified spectrophotometrically by absorbance at 450 nm. Data from CPE assays were expressed as the percent of formazan produced in compound-treated cells compared to formazan produced in wells of uninfected, compound-free cells. […] The therapeutic index was calculated by dividing the cytotoxicity (CC50) by the antiviral activity (EC50).
Background: Tetrazolium dyes change colour on reduction, which living cells bring about.

[3] abbreviates: strand transfer, read-out: IC50.
The mark [4] stands for this setting: Human immunodeficiency virus 1, CEM-SS, 144 h, HIV-1 RF, CEM-SS cells, XTT dye reduction, six days, read-out: EC50.

The structures appear in SMILES notation. Where two headings read alike, the source gives them in different places.

By IC50 is commonly meant the concentration that gives 50% inhibition. The term EC50 denotes the concentration that produces a half-maximal response. `O=C(NO)c1cc2c(CN[C@H](CO)Cc3ccccc3)cn(Cc3ccc(F)cc3F)c2cn1` [Example 64, 3-({[(1S)-1-Benzyl-2-hydroxyethyl]amino}methyl)-1-(2,4-difluorobenzyl)-N-hydroxy-1H-pyrrolo[2,3-c]pyridine-5-carboxamide]: the IC50 in assay [1] (setting [3]) was determined as 328 nM. The EC50 in assay [2] (setting [4]) was 17 nM.
The matching figures for `CC(C)N(O)C(=O)c1cc2ccn(Cc3ccc(F)cc3)c2cn1` [Example 27, 1-(4-Fluorobenzyl)-N-hydroxy-N-isopropyl-1H-pyrrolo[2,3-c]pyridine-5-carboxamide]: 8000 nM and 3500 nM.
In the case of `O=C(NO)c1cc2c(COC[C@H](O)CO)cn(Cc3ccc(F)cc3F)c2cn1` [Example 107, 1-(2,4-Difluorobenzyl)-3-({[(2S)-2,3-dihydroxypropyl]oxy}methyl)-hydroxy-1H-pyrrolo[2,3-c]pyridine-5-carboxamide], the IC50 in assay [1] (IC50, strand transfer) is 3.4 nM. In assay [2] (setting [4]), the EC50 is 32.2 nM.
With `CN(O)C(=O)c1cc2c(CN3CCOCC3)cn(Cc3ccc(F)cc3F)c2cn1` [Example 7, 1-(2,4-Difluorobenzyl)-A-hydroxy-N-methyl-3-(morpholin-4-ylmethyl)-1H-pyrrolo[2,3-c]pyridine-5-carboxamide], the IC50 in assay [1] (setting [3]) amounted to 140 nM. Also, the EC50 in assay [2] (setting [4]) came to 21 nM.
The matching figures for `O=C(NO)c1cc2c(CNC3CCS(=O)(=O)C3)cn(Cc3ccc(F)cc3F)c2cn1` (stereo not drawn) [Example 12, 1-(2,4-Difluorobenzyl)-3-{[(1,1-dioxidotetrahydrothien-3-yl)amino]methyl}-N-hydroxy-1H-pyrrolo[2,3-c]pyridine-5-carboxamide]: 36 nM and 19 nM.
`CN(O)C(=O)c1cc2c(CN3CCNC(=O)C3)cn(Cc3ccc(F)cc3)c2cn1` [Example 114, 1-(4-fluorobenzyl)-N-hydroxy-N-methyl-3-[(3-oxopiperazin-1-yl)methyl]-1H-pyrrolo[2,3-c] pyridine-5-carboxamide]: the IC50 in assay [1] (setting [3]) was 150 nM. In assay [2] (Human immunodeficiency virus 1, CEM-SS, 144 h), this compound returned an EC50 of 351 nM.
For the compound `O=C(NO)c1cc2c(CNCCN3CCOCC3)cn(Cc3ccc(F)cc3F)c2cn1` [Example 54], the IC50 in assay [1] (setting [3]) worked out at 746 nM. In assay [2] (setting [4]), the EC50 is 38 nM.
As for `CN1CCN(Cc2cn(Cc3ccc(F)cc3)c3cnc(C(=O)N(C)O)cc23)CC1` [Example 14, 1-(4-Fluorobenzyl)-AN-hydroxy-N-methyl-3-[(4-methylpiperazin-1-yl)methyl]-1H-pyrrolo[2,3-c]pyridine-5-carboxamide], the IC50 in assay [1] (IC50, strand transfer) amounted to 540 nM. Further, the EC50 in assay [2] (setting [4]) was found to be 140 nM.
`O=C(NO)c1cc2c(CNCCO)cn(Cc3ccc(F)cc3F)c2cn1` [Example 3]: the IC50 in assay [1] (setting [3]) came out at 195 nM. In addition, the EC50 in assay [2] (HIV-1 RF, CEM-SS cells, XTT dye reduction, six days, read-out: EC50) worked out at 160 nM.
With `CN(CCc1ccccn1)Cc1cn(Cc2ccc(F)cc2F)c2cnc(C(=O)NO)cc12` [Example 63, 1-(2,4-Difluorobenzyl)-N-hydroxy-3-{[methyl(2-pyridin-2-ylethyl)amino]methyl}-1H-pyrrolo[2,3-c]pyridine-5-carboxamide], in assay [1] (setting [3]), the 50% inhibitory concentration (IC50) stood at 424 nM. Also, in assay [2] (setting [4]), the EC50 was found to be 16 nM.
On to `O=C(NO)c1cc2c(CNCc3ccc(OC(F)F)cc3)cn(Cc3ccc(F)cc3F)c2cn1` [Example 94, 1-(2,4-Difluorobenzyl)-3-({[4-(difluoromethoxy)benzyl]amino}methyl)-N-hydroxy-1H-pyrrolo[2,3-c]pyridine-5-carboxamide], for which the half-maximal inhibitory concentration (IC50) in assay [1] (setting [3]) was determined as 288 nM. Also, the EC50 in assay [2] (setting [4]) stood at 26 nM.
Regarding `COCCOCc1cn(Cc2ccc(F)cc2)c2cnc(C(=O)NOC)cc12` [Example 109, 1-(4-Fluorobenzyl)-N-methoxy-3-[(2-methoxyethoxy)methyl]-1H-pyrrolo[2,3-c]pyridine-5-carboxamide], the IC50 in assay [1] (setting [3]) amounted to 63 nM. Further, the EC50 in assay [2] (setting [4]) came out at 313 nM.
The matching figures for `CONC(=O)c1cc2ncn(Cc3ccc(F)cc3)c2cn1` [Example 22, 3-(4-Fluorobenzyl)-N-methoxy-3H-imidazo[4,5-c]pyridine-6-carboxamide]: 1300 nM and 190 nM.
The matching figures for `O=C(NO)c1cc2c(CNCCCN3CCCC3=O)cn(Cc3ccc(F)cc3F)c2cn1` [Example 68, 1-(2,4-Difluorobenzyl)-N-hydroxy-3-({[3-(2-oxopyrrolidin-1-yl)propyl]amino}methyl)-1H-pyrrolo[2,3-c]pyridine-5-carboxamide]: 549 nM and 100 nM.
As for `O=C(NO)c1cc2c(CNCC3CCCO3)cn(Cc3ccc(F)cc3F)c2cn1` (stereo not drawn) [Example 60, 1-(2,4-Difluorobenzyl)-N-hydroxy-3-{[(tetrahydrofuran-2-ylmethyl)amino]methyl}-1H-pyrrolo[2,3-c]pyridine-5-carboxamide], the IC50 in assay [1] (setting [3]) came to 521 nM. Also, the EC50 in assay [2] (setting [4]) is 12 nM.
In the same order, the values of `Cc1cnc(CNCc2cn(Cc3ccc(F)cc3F)c3cnc(C(=O)NO)cc23)cn1` [Example 66, 1-(2,4-Difluorobenzyl)-N-hydroxy-3-({[(5-methylpyrazin-2-yl)methyl]amino}methyl)-1H-pyrrolo[2,3-c]pyridine-5-carboxamide] are 357 nM and 11 nM.
As for `O=C1CN(Cc2cn(Cc3ccc(F)cc3)c3cnc(C(=O)NO)cc23)CCN1` [Example 15, 1-(4-Fluorobenzyl)-N-hydroxy-3-[(3-oxopiperazin-1-yl)methyl]-1 pyrrolo[2,3-c]pyridine-5-carboxamide], the IC50 in assay [1] (setting [3]) was 41 nM. For the same compound, the EC50 in assay [2] (setting [4]) is 11 nM.
In the same order, the values of `O=C(NO)c1cc2ncn(Cc3ccc(F)cc3)c2cn1` [Example 21, 3-(4-Fluorobenzyl)-N-hydroxy-3H-imidazo[4,5-c]pyridine-6-carboxamide] are 517 nM and 84 nM.
